For 14 compounds, Kd results are on record in patent US20230203098A1, “HUMAN TRANSFERRIN RECEPTOR BINDING PEPTIDE” (priority 2020, published 2023).

pKd: −log10 of the molar value. Where a SMILES comes first, the peptide text is derived from it. Bridges are numbered along the chain shown (N, C = ends). [ ]: non-standard residue; d: D form. The star is where a group is joined. NH(CH2CH2O)8Me = COCCOCCOCCOCCOCCOCCOCCOCCN*; NMePhe(3-Cl) = CN[C@@H](Cc1cccc(Cl)c1)C(=O)O; NMeW = CN[C@@H](Cc1c[nH]c2ccccc12)C(=O)O; NMeY = CN[C@@H](Cc1ccc(O)cc1)C(=O)O; PEG4 = NCCOCCOCCOCCOCCC(=O)O; hLys = NCCCCC[C@H](N)C(=O)O; X1 = CN[C@H](CCCCN*)C(=O)O

Sequence of transferrin receptor (hTfR) (P02786 whole entry): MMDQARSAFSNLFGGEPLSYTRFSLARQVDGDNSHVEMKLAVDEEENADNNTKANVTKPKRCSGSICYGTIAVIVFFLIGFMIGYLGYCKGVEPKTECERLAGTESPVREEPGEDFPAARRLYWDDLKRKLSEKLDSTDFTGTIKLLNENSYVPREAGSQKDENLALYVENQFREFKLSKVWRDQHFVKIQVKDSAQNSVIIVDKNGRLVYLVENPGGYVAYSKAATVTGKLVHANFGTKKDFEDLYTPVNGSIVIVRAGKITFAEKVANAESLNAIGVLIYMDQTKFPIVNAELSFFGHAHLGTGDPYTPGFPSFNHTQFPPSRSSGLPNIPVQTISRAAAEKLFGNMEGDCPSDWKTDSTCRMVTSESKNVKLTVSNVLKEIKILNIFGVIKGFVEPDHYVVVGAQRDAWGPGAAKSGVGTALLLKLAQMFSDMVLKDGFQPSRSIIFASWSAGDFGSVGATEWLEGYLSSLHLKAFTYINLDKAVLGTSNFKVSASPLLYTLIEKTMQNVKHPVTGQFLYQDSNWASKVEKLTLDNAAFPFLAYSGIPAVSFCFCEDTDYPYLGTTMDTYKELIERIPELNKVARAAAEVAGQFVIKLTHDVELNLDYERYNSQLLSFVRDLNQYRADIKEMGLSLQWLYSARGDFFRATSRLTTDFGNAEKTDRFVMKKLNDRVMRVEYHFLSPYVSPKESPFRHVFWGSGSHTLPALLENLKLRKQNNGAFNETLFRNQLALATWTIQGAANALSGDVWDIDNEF

The first assay concerns the target transferrin receptor (hTfR) (Homo sapiens, UniProt P02786). Kind of assay: Intermolecular interaction evaluation test between transferrin receptor (hTfR) and peptide by surface plasmon resonance (SPR).
Details: not given
The format is binding. In short, it runs like this: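 hTfR captured on Ni-NTA chip then amine-coupled; peptides run single-cycle kinetics at 5–100 nM in 10 mM HEPES pH 8.0, 150 mM NaCl, 0.05% Tween 20, 0.1% BSA, 1.0% DMSO. KD from least-squares curve fitting of sensorgrams.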
For orientation: In SPR one partner is held on a chip, and binding of the other changes the refractive index at the surface.
In turn, `CC[C@H](C)[C@@H]1NC(=O)[C@H](Cc2ccc(OC)cc2)NC(=O)[C@H](Cc2ccc(O)cc2)NC(=O)[C@H](CC(N)=O)NC(=O)[C@H](Cc2c[nH]c3ccccc23)N(C)C(=O)[C@H](C(C)C)NC(=O)[C@H](Cc2cccc(Cl)c2)N(C)C(=O)[C@H](C(C)C)NC(=O)[C@H](C)NC(=O)CSC[C@@H](C(=O)NCC(=O)NCC(=O)NCC(=O)NCC(=O)N[C@@H](CO)C(=O)N[C@@H](CO)C(=O)N[C@@H](CS)C(N)=O)NC(=O)[C@H](Cc2ccc(O)cc2)N(C)C(=O)[C@H](Cc2ccccc2)NC(=O)[C@@H](CCCNC(=N)N)NC(=O)[C@H](CCCNC(=N)N)NC(=O)[C@H](CCCCCN)NC1=O` [compound 341] had a pKd of 7.00 to 9.00.

With `CC[C@H](C)[C@@H]1NC(=O)[C@H](Cc2ccc(OC)cc2)NC(=O)[C@H](Cc2ccc(O)cc2)NC(=O)[C@H](CC(N)=O)NC(=O)[C@H](Cc2c[nH]c3ccccc23)N(C)C(=O)[C@H](C(C)C)NC(=O)[C@H](Cc2cccc(Cl)c2)N(C)C(=O)[C@H](C(C)C)NC(=O)[C@H](C)NC(=O)CSC[C@@H](C(=O)NCC(=O)NCC(=O)NCC(=O)NCC(=O)N[C@@H](CO)C(=O)N[C@@H](CO)C(=O)N[C@@H](CS)C(N)=O)NC(=O)[C@H](Cc2ccc(O)cc2)N(C)C(=O)[C@H](Cc2ccccc2)NC(=O)[C@@H](CCCNC(=N)N)NC(=O)[C@H](CCCNC(=N)N)NC(=O)[C@H](CN)NC1=O` [compound 343], the pKd was 7.00 to 9.00.

Still in this assay, the particulars now being: surface plasmon resonance, hTfR; read-out: KD value for hTfR by SPR (class symbol).
For `CC[C@H](C)[C@@H]1NC(=O)[C@H](Cc2ccc(OC)cc2)NC(=O)[C@H](Cc2ccc(O)cc2)NC(=O)[C@H](CC(N)=O)NC(=O)[C@H](Cc2c[nH]c3ccccc23)N(C)C(=O)[C@H](C(C)C)NC(=O)[C@H](Cc2cccc(Cl)c2)N(C)C(=O)[C@H](C(C)C)NC(=O)[C@H](C)NC(=O)CSC[C@@H](C(=O)NCCOCCOCCOCCOCCC(N)=O)NC(=O)[C@H](Cc2ccc(O)cc2)N(C)C(=O)[C@H](Cc2ccccc2)NC(=O)[C@H](CCCNC(=N)N)NC(=O)C(C)(C)NC(=O)[C@H]([C@@H](C)CC)NC1=O` [compound 351], the pKd was 7.00 to 9.00. Take `CC[C@H](C)[C@@H]1NC(=O)[C@H](Cc2ccc(OC)cc2)NC(=O)[C@H](Cc2ccc(O)cc2)NC(=O)[C@H](CC(N)=O)NC(=O)[C@H](Cc2c[nH]c3ccccc23)N(C)C(=O)[C@H](C(C)C)NC(=O)[C@H](Cc2cccc(Cl)c2)N(C)C(=O)[C@H](C(C)C)NC(=O)[C@H](C)NC(=O)CSC[C@@H](C(=O)NCCOCCOCCOCCOCCC(N)=O)NC(=O)[C@H](Cc2ccc(O)cc2)NC(=O)[C@H](Cc2ccccc2)NC(=O)[C@@H](CCCNC(=N)N)NC(=O)C(C)(C)NC(=O)[C@H]([C@@H](C)CC)NC1=O` [compound 352]: the pKd was 7.00 to 9.00.

For the compound `CC[C@H](C)[C@@H]1NC(=O)[C@H](Cc2ccc(OC)cc2)NC(=O)[C@H](Cc2ccc(O)cc2)NC(=O)[C@H](CC(N)=O)NC(=O)[C@H](Cc2c[nH]c3ccccc23)N(C)C(=O)[C@H](C(C)C)NC(=O)[C@H](Cc2cccc(Cl)c2)N(C)C(=O)[C@H](C(C)C)NC(=O)[C@H](C)NC(=O)CSC[C@@H](C(N)=O)NC(=O)[C@H](Cc2ccc(O)cc2)N(C)C(=O)[C@H](Cc2ccccc2)NC(=O)[C@@H](CCCNC(=N)N)NC(=O)C(C)(C)NC(=O)[C@H]([C@@H](C)CC)NC1=O` [compound 353], the negative-log Kd (pKd) is 7.00 to 9.00. Regarding `CC[C@H](C)[C@@H]1NC(=O)[C@H](Cc2ccc(OC)cc2)NC(=O)[C@H](Cc2ccc(O)cc2)NC(=O)[C@H](CC(N)=O)NC(=O)[C@H](Cc2c[nH]c3ccccc23)N(C)C(=O)[C@H](C(C)C)NC(=O)[C@H](Cc2cccc(Cl)c2)N(C)C(=O)[C@H](C(C)C)NC(=O)[C@H](C)NC(=O)CSC[C@@H](C(=O)NCCOCCOCCOCCOCCC(N)=O)NC(=O)[C@H](Cc2ccc(O)cc2)N(C)C(=O)[C@H](Cc2ccccc2)NC(=O)[C@@H](CCCNC(=N)N)NC(=O)C(C)(C)NC(=O)[C@H]([C@@H](C)CC)NC1=O` [compound 354], the negative logarithm of the Kd (pKd) is greater than 9.00.

Still in this assay, the particulars now being: surface plasmon resonance, peptide vs hTfR; read-out: KD value, hTfR binding by SPR (class symbol).
On to `CC[C@H](C)[C@@H]1NC(=O)[C@H](Cc2ccc(OC)cc2)NC(=O)[C@H](Cc2ccc(O)cc2)NC(=O)[C@H](CC(N)=O)NC(=O)[C@H](Cc2c[nH]c3ccccc23)N(C)C(=O)[C@H](C(C)C)NC(=O)[C@H](Cc2cccc(Cl)c2)N(C)C(=O)[C@H](C(C)C)NC(=O)[C@H](C)NC(=O)CSC[C@@H](C(=O)NCCOCCOCCOCCOCCC(N)=O)NC(=O)[C@H](Cc2ccc(O)cc2)N(C)C(=O)[C@H](Cc2ccccc2)NC(=O)[C@@H](CCCNC(=N)N)NC(=O)[C@H](CCCNC(=N)N)NC(=O)[C@H](CCCCCN)NC1=O` [compound 339] ({CH2CO}-AV[NMePhe(3-Cl)]V[NMeW]NYY(Me)I[hLys]R[dR]F[NMeY]C[PEG4]-NH2; thioether N-15), for which the pKd was 7.00 to 9.00.

On to `CC[C@H](C)[C@@H]1NC(=O)[C@H](Cc2ccc(OC)cc2)NC(=O)[C@H](Cc2ccc(O)cc2)NC(=O)[C@H](CC(N)=O)NC(=O)[C@H](Cc2c[nH]c3ccccc23)N(C)C(=O)[C@H](C(C)C)NC(=O)[C@H](Cc2cccc(Cl)c2)N(C)C(=O)[C@H](C(C)C)NC(=O)[C@H](C)NC(=O)CSC[C@@H](C(=O)NCC(=O)N[C@@H](CCCCN=[N+]=[N-])C(N)=O)NC(=O)[C@H](Cc2ccc(O)cc2)N(C)C(=O)[C@H](Cc2ccccc2)NC(=O)[C@@H](CCCNC(=N)N)NC(=O)[C@H](CCCNC(=N)N)NC(=O)[C@H](CCC(=O)O)NC1=O` [compound 340], for which the pKd was 7.00 to 9.00. The same measure, in the same setting: next, `CC[C@H](C)[C@@H]1NC(=O)[C@H](Cc2ccc(OC)cc2)NC(=O)[C@H](Cc2ccc(O)cc2)NC(=O)[C@H](CC(N)=O)NC(=O)[C@H](Cc2c[nH]c3ccccc23)N(C)C(=O)[C@H](C(C)C)NC(=O)[C@H](Cc2cccc(Cl)c2)N(C)C(=O)[C@H](C(C)C)NC(=O)[C@H](C)NC(=O)CSC[C@@H](C(=O)NCC(=O)NCC(=O)NCC(=O)NCC(=O)N[C@@H](CO)C(=O)N[C@@H](CO)C(=O)N[C@@H](CS)C(N)=O)NC(=O)[C@H](Cc2ccc(O)cc2)N(C)C(=O)[C@H](Cc2ccccc2)NC(=O)[C@@H](CCCNC(=N)N)NC(=O)[C@H](CCCNC(=N)N)NC(=O)[C@H](CCC(=O)O)NC1=O` [compound 342]: 7.00 to 9.00. Consider `CC[C@H](C)[C@@H]1NC(=O)[C@H](Cc2ccc(OC)cc2)NC(=O)[C@H](Cc2ccc(O)cc2)NC(=O)[C@H](CC(N)=O)NC(=O)[C@H](Cc2c[nH]c3ccccc23)N(C)C(=O)[C@H](C(C)C)NC(=O)[C@H](Cc2cccc(Cl)c2)N(C)C(=O)[C@H](C(C)C)NC(=O)[C@H](C)NC(=O)CSC[C@@H](C(=O)NCC(=O)NCC(=O)NCC(=O)NCC(=O)N[C@@H](CO)C(=O)N[C@@H](CO)C(=O)N[C@@H](CS)C(N)=O)NC(=O)[C@H](Cc2ccc(O)cc2)N(C)C(=O)[C@H](Cc2ccccc2)NC(=O)[C@@H](CCCNC(=N)N)NC(=O)[C@H](CCCNC(=N)N)NC(=O)[C@H](CCCCN)NC1=O` [compound 344], for which the pKd was 7.00 to 9.00. For `CC[C@H](C)[C@@H]1NC(=O)[C@H](Cc2ccc(OC)cc2)NC(=O)[C@H](Cc2ccc(O)cc2)NC(=O)[C@H](CC(N)=O)NC(=O)[C@H](Cc2c[nH]c3ccccc23)N(C)C(=O)[C@H](C(C)C)NC(=O)[C@H](Cc2cccc(Cl)c2)N(C)C(=O)[C@H](C(C)C)NC(=O)[C@H](C)NC(=O)CSC[C@@H](C(N)=O)NC(=O)[C@H](Cc2ccc(O)cc2)N(C)C(=O)[C@H](Cc2ccccc2)NC(=O)[C@@H](CCCNC(=N)N)NC(=O)[C@H](CCCNC(=N)N)NC(=O)[C@H](CCC(=O)NCCOCCOCCOCCOCCOCCOCCOCCOC)NC1=O` [compound 345] ({CH2CO}-AV[NMePhe(3-Cl)]V[NMeW]NYY(Me)IE(NH(CH2CH2O)8Me)R[dR]F[NMeY]C-NH2; thioether N-15), the pKd was 7.00 to 9.00. Turning to `CC[C@H](C)[C@@H]1NC(=O)[C@H](Cc2ccc(OC)cc2)NC(=O)[C@H](Cc2ccc(O)cc2)NC(=O)[C@H](CC(N)=O)NC(=O)[C@H](Cc2c[nH]c3ccccc23)N(C)C(=O)[C@H](C(C)C)NC(=O)[C@H](Cc2cccc(Cl)c2)N(C)C(=O)[C@H](C(C)C)NC(=O)[C@H](C)NC(=O)CSC[C@@H](C(N)=O)NC(=O)[C@H](Cc2ccc(O)cc2)N(C)C(=O)[C@H](Cc2ccccc2)NC(=O)[C@@H](CCCNC(=N)N)NC(=O)[C@H](CCCNC(=N)N)NC(=O)[C@H](CCC(=O)NCCCC[C@@H](NC)C(=O)O)NC1=O` [compound 346] ({CH2CO}-AV[NMePhe(3-Cl)]V[NMeW]NYY(Me)IE(X1)R[dR]F[NMeY]C-NH2; thioether N-15), the negative-log Kd (pKd) is 7.00 to 9.00. Regarding `CC[C@H](C)[C@@H]1NC(=O)[C@H](Cc2ccc(OC)cc2)NC(=O)[C@H](Cc2ccc(O)cc2)NC(=O)[C@H](CC(N)=O)NC(=O)[C@H](Cc2c[nH]c3ccccc23)N(C)C(=O)[C@H](C(C)C)NC(=O)[C@H](Cc2cccc(Cl)c2)N(C)C(=O)[C@H](C(C)C)NC(=O)[C@H](C)NC(=O)CSC[C@@H](C(N)=O)NC(=O)[C@H](Cc2ccc(O)cc2)N(C)C(=O)[C@H](Cc2ccccc2)NC(=O)[C@@H](CCCNC(=N)N)NC(=O)[C@H](CCCNC(=N)N)NC(=O)[C@H](CCC(=O)N[C@H](CCC(=O)O)C(=O)O)NC1=O` [compound 347] ({CH2CO}-AV[NMePhe(3-Cl)]V[NMeW]NYY(Me)IE(dE)R[dR]F[NMeY]C-NH2; thioether N-15), the negative-log Kd (pKd) is 7.00 to 9.00. On the same count and under the same terms, the figure for `CC[C@H](C)[C@@H]1NC(=O)[C@H](Cc2ccc(OC)cc2)NC(=O)[C@H](Cc2ccc(O)cc2)NC(=O)[C@H](CC(N)=O)NC(=O)[C@H](Cc2c[nH]c3ccccc23)N(C)C(=O)[C@H](C(C)C)NC(=O)[C@H](Cc2cccc(Cl)c2)N(C)C(=O)[C@H](C(C)C)NC(=O)[C@H](C)NC(=O)CSC[C@@H](C(=O)NCC(=O)NCC(=O)NCC(=O)NCC(=O)N[C@@H](CO)C(=O)N[C@@H](CO)C(=O)N[C@@H](CS)C(N)=O)NC(=O)[C@H](Cc2ccc(O)cc2)N(C)C(=O)[C@H](Cc2ccccc2)NC(=O)[C@@H](CCCNC(=N)N)NC(=O)[C@H](CCC(=O)O)NC(=O)[C@H]([C@@H](C)CC)NC1=O` [compound 348] is 6.00 to 7.00.

What is called pKd is the Kd on a negative log10 scale, so that one unit is a factor of ten.
